From patent US11969408B2, “Method for improving mitophagy in subjects” (Amazentis SA, priority 2017, dated 2024) come the findings set out here.

For this assay, the system named is muscle and mitochondrial gene sets in vastus lateralis. Nature of the assay: Microarray analysis / Gene Set Enrichment Analysis of skeletal muscle biopsies. It counts as in vivo, human. The procedure:
Muscle biopsies were collected on Day −1 and Day 28 at pre-dose under fasted state using the Bergström biopsy needle technique. The minimal amount of each muscle tissue sample was approximately 50 mg. One third of the tissue was used for gene expression (≈50 mg), and was further divided into two equal portions: one portion for RNA analysis (≈25 mg) and one portion for DNA analysis (≈25 mg), both in a Safe-lock Tubes 2.0 ml, Eppendorf (part no. 0030.120.094). Muscle tissue was snap frozen using liquid nitrogen immediately after collection and further, long term storage will be in a −80° C. freezer. The mRNA was analysed by microarray. Quantification of mtDNA over nuclear DNA provided another measure of mitochondrial abundance. The shipment was done in dry ice by specialized carrier. Temperatures were monitored using data logger during all transport. Gene expression on available remaining muscle tissues samples was performed by microarrays. […] Microarray analysis was carried out on skeletal muscle biopsies of human subjects administered urolithin A or placebo daily for 28 days. Approximately 30,000 gene transcripts were quantified by microarray in muscle biopsies and compared (day 28 vs. day −1). Gene Set Enrichment Analysis was conducted on 6166 gene sets. […]

For the molecule `O=c1oc2cc(O)ccc2c2ccc(O)cc12` [Urolithin A], the “enrichment in GO_MITOCHONDRION genes expression” value (1000 mg urolithin A group vs placebo group, 28 day treatment) is “significant”. Besides, under “1000 mg/day for 28 days, day 28 vs day −1, compared with placebo, FDR<0.25”, the “mitochondrial and muscle gene sets expression (normalized enrichment score)” value was “significantly upregulated”.
